The term IC50 denotes the midpoint of a concentration-inhibition curve. High values mean weaker potency in that assay, low ones greater potency in that assay. For orientation: EC50 means the concentration at which the effect is half-maximal. The low end stands for an effect from little substance, the high end for a need for much substance. In general, CC50 refers to the concentration that lowers cell viability or growth by half. A high value points to lower toxicity to the cells.

The nature of series [1]: Inhibition of Influenza B virus wild type neuraminidase.
The subject of the next series is Influenza A virus. As to the kind of experiment: Antiviral activity against Influenza A virus infected in MDCK cells after 72 hrs by yield reduction assay. Type of series: functional, organism-based.
Series [2] in a line: Cytotoxicity against MDCK cells after 72 hrs by XTT assay. The format is cell-based, Canis lupus familiaris. As to conditions: dog. (Tetrazolium dyes change colour on reduction, which living cells bring about.)

SMILES strings stand for the structures.

Take `CCOC(=O)c1cn(CC)c2ccc(-n3cc(C4=CCCCC4)nn3)cc2c1=O`: in series [1], the IC50 was found to be 22 µM. The molecule also displayed an EC50 in the series with Influenza A virus of 0.2 µM. Further, the CC50 at 72 h in series [2] was found to be 566 µM.
In series [1], `CCOC(=O)C1=C[C@@H](OC(CC)CC)[C@H](NC(C)=O)[C@@H](N)C1` [OSELTAMIVIR] returned an IC50 of 16 µM. This molecule gave an EC50 with Influenza A virus of 0.03 µM. Further, in series [2], the CC50 at 72 h was 321 µM.

The record behind these values is ChEMBL document CHEMBL3739372 (Bioorg Med Chem, 2015).
